According to patent publication US11415579B2, “Assay for measuring a rate of reaction between a target and a ligand candidate” (Imperial College Innovations Ltd., priority 2016, dated 2022):

How the values were obtained:
Cdk2(C177A, F80C) = molecular target: T1, Cdk2(C177A, F80C) (Homo sapiens, UniProt P24941, C177A/F80C); experiment: Kinetic thiol consumption assay with Cdk2 mutant F80C, incl. kobs versus concentration (Kd, k2); format: binding; set-up: key to Rate enhancement, Cdk2 F80C: Cdk2 rate constant divided by model-thiol rate constant; conditions: additional mutation C177A; for Rate constant with Cdk2 F80C: Protein: Cdk2, cysteine position F80C, in h^-1
T1 construct: poly-histidine; made in house; host or cells: E. coli
Method in brief: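 His-tagged Cdk2(C177A/F80C) from E. coli or model thiol, 5 μM in degassed phosphate buffer pH 8 with TCEP beads, reacted with acrylamide ligands; fluorescence (ex/em 380/470 nm) normalized to DMSO control and fitted to first-order decay for kobs. Kd and k2 obtained from hyperbolic fit of kobs versus ligand concentration.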

Cdk2(S181C) (C177A) = molecular target: T2, Cdk2(S181C) (C177A) (Homo sapiens, UniProt P24941, C177A/S181C); experiment: Kinetic thiol consumption assay with Cdk2 mutant S181C; format: binding; set-up: key to Rate enhancement, Cdk2 S181C: rate constant with Cdk2 ÷ rate constant with model thiol (fold); conditions: additional mutation C177A; for Rate constant with Cdk2 S181C: Protein: Cdk2, cysteine position S181C, in h^-1
T2 construct: poly-histidine; made in house; host or cells: E. coli
Method in brief: (§1)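 5 μM thiol, degassed phosphate pH 8, 2% v/v immobilized TCEP beads; 1 h RT; fluorescence ex 380/em 470 nm; normalized vs DMSO/thiol-only; first-order exponential decay fit → rate constant; Cdk2 k / model-thiol k = rate enhancement per acrylamide.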

[1] = Kinetic thiol consumption assay with model thiol glutathione; format: physicochemical; set-up: Rate constant with glutathione (k(GSH)): unit not given here; conditions: for Rate constant with glutathione (k(GSH)): 500 μM ligand, 5 μM thiol, phosphate buffer pH 8; for Rate constant with Glutathione: Protein: Glutathione, cysteine position NA, in h-1
Method in brief: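 GSH 5 μM, degassed phosphate buffer pH 8, TCEP beads 2% v/v; acrylamide added; RT, 1 h; fluorescence ex/em 380/470 nm; normalized to DMSO/thiol control; k from first-order exponential decay fit.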

Cdk2(R122C) (C177A) = molecular target: T3, Cdk2(R122C) (C177A) (Homo sapiens, UniProt P24941, C177A/R122C); experiment: Kinetic thiol consumption assay with Cdk2 mutant R122C; format: binding; set-up: key to Rate enhancement, Cdk2 R122C: rate constant with Cdk2 ÷ rate constant with model thiol (fold); conditions: additional mutation C177A; for Rate constant with Cdk2 R122C: Protein: Cdk2, cysteine position R122C, in h-1
T3 construct: poly-histidine; made in house; host or cells: E. coli
Method in brief: as §1

Cdk2(T182C) (C177A) = molecular target: T4, Cdk2(T182C) (C177A) (Homo sapiens, UniProt P24941, C177A/T182C); experiment: Kinetic thiol consumption assay with Cdk2 mutant T182C; format: binding; set-up: key to Rate enhancement, Cdk2 T182C: rate constant with Cdk2 ÷ rate constant with model thiol (fold); conditions: additional mutation C177A; for Rate constant with Cdk2 T182C: Protein: Cdk2, cysteine position T182C, in h^-1
T4 construct: poly-histidine; made in house; host or cells: E. coli
Method in brief: as §1

Cdk2(S276C) (C177A) = molecular target: T5, Cdk2(S276C) (C177A) (Homo sapiens, UniProt P24941, C177A/S276C); experiment: Kinetic thiol consumption assay with Cdk2 mutant S276C; format: binding; set-up: key to Rate enhancement, Cdk2 S276C: rate constant with Cdk2 ÷ rate constant with model thiol (fold); conditions: additional mutation C177A; for Rate constant with Cdk2 S276C: Protein: Cdk2, cysteine position S276C, in h^-1
T5 construct: poly-histidine; made in house; host or cells: E. coli
Method in brief: as §1

Cdk2[C177A, F80C, K278C] = molecular target: T6, Cdk2[C177A, F80C, K278C] (Homo sapiens, UniProt P24941, C177A/F80C/K278C); experiment: Kinetic thiol consumption assay with mutant Cdk2 as model thiol; format: binding; set-up: unit not given here; conditions: 500 μM ligand, 5 μM thiol, phosphate buffer pH 8
T6 construct: poly-histidine; made in house; host or cells: E. coli
Method: A library of 120 acrylamides was screened against a) human cyclin-dependent kinase 2 (Cdk2, which contains one surface exposed cysteine residue—C177), prepared by cloning cDNA into the pRSETA bacterial expression vector to generate a poly-histidine tagged Cdk2 fusion that was purified from E. coli using standard techniques, and b) a model thiol (specific details are given below). The structures of these 120 acrylamides are set out in Table 1, above.
To wells containing 150 μL thiol (Cdk2 or model thiol) (5 μM) in degassed phosphate buffer (pH 8) was added immobilized TCEP beads (2% v/v).
After incubation of the fluorescence plates for 1 hour at room temperature, fluorescence measurements (excitation/emission of 380/470 nm) were taken on a PerkinElmer EnVision multilabel plate reader and processed with EnVision Workstation version 1.12.
Fluorescence measurements were normalized against a DMSO/thiol only control and plotted against time.
Rate constants were calculated using GraphPad software Prism version 6 by fitting a first order exponential decay to the data. The rate constant for each acrylamide with Cdk2 was divided by the rate constant for that fragment with the model thiol to provide the rate enhancement for each ligand candidate.
The model thiol used in Example 2 is a mutant form of human Cdk2 (C177A, F80C, K278C) which contains two engineered surface exposed cysteine residues. Mutations were introduced by site-directed mutagenesis and the resulting cDNA was cloned into the pRSETA bacterial expression vector to generate a poly-histidine tagged Cdk2 fusion that was purified from E. coli using standard techniques.

Cdk2(H71C) (C177A) = molecular target: T7, Cdk2(H71C) (C177A) (Homo sapiens, UniProt P24941, C177A/H71C); experiment: Kinetic thiol consumption assay with Cdk2 mutant H71C; format: binding; set-up: key to Rate enhancement, Cdk2 H71C: rate constant with Cdk2 ÷ rate constant with model thiol (fold); conditions: additional mutation C177A; for Rate constant with Cdk2 H71C: Protein: Cdk2, cysteine position H71C, in h^-1
T7 construct: poly-histidine; made in house; host or cells: E. coli
Method in brief: as §1

Cdk2(N272C) (C177A) = molecular target: T8, Cdk2(N272C) (C177A) (Homo sapiens, UniProt P24941, C177A/N272C); experiment: Kinetic thiol consumption assay with Cdk2 mutant N272C; format: binding; set-up: key to Rate enhancement, Cdk2 N272: rate constant with Cdk2 ÷ rate constant with model thiol (fold); conditions: for Rate enhancement, Cdk2 N272: Cdk2 N272, additional mutation C177A; for Rate constant with Cdk2 N272C: Protein: Cdk2, cysteine position N272C, additional mutation C177A, in h^-1
T8 construct: poly-histidine; made in house; host or cells: E. coli
Method in brief: as §1

[2] = molecular target: T9, human cyclin-dependent kinase 2 (Cdk2) (Homo sapiens, UniProt P24941); experiment: Kinetic thiol consumption assay with wild type Cdk2 (C177); format: binding; set-up: key to Rate enhancement, Cdk2 WT: k(Cdk2) divided by k(model thiol); Rate constant with Cdk2 (k(Cdk2)): unit not given here; conditions: for Rate constant with Cdk2 (k(Cdk2)): 500 μM ligand, 5 μM thiol, phosphate buffer pH 8; for Rate enhancement, Cdk2 WT: no additional mutations; for Rate constant with Cdk2 WT: Protein: Cdk2, cysteine position WT, in h^-1; for k(Cdk2)/k(Cdk2_mut) rate enhancement: model thiol Cdk2[C177A, F80C, K278C]; for k(Cdk2)/k(GSH) rate enhancement: model thiol glutathione
T9 construct: poly-histidine; made in house; host or cells: E. coli
Method in brief: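 Thiol 5 μM (Cdk2 or model thiol), degassed phosphate buffer pH 8, TCEP beads 2% v/v. Plates incubated 1 h RT, ex/em 380/470 nm. First-order decay fit → rate constant; ratio Cdk2/model thiol = rate enhancement.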

SMILES | Rate enhancement, Cdk2 F80C (Cdk2(C177A, F80C)) | Rate constant with Cdk2 F80C (Cdk2(C177A, F80C)) | Rate enhancement, Cdk2 S181C (Cdk2(S181C) (C177A)) | Rate constant with Cdk2 S181C (Cdk2(S181C) (C177A)) | Rate enhancement, Cdk2 R122C (Cdk2(R122C) (C177A)) | Rate constant with Cdk2 R122C (Cdk2(R122C) (C177A)) | Rate enhancement, Cdk2 T182C (Cdk2(T182C) (C177A)) | Rate constant with Cdk2 T182C (Cdk2(T182C) (C177A)) | Rate enhancement, Cdk2 S276C (Cdk2(S276C) (C177A)) | Rate constant with Cdk2 S276C (Cdk2(S276C) (C177A)) | Rate constant with Cdk2[C177A, F80C, K278C] (k(Cdk2_mut)) (Cdk2[C177A, F80C, K278C]) | Rate enhancement, Cdk2 H71C (Cdk2(H71C) (C177A)) | Rate enhancement, Cdk2 N272 (Cdk2(N272C) (C177A)) | Rate constant with Cdk2 N272C (Cdk2(N272C) (C177A)) | Rate constant with Cdk2 (k(Cdk2)) [2] | Rate enhancement, Cdk2 WT [2] | Rate constant with Cdk2 WT [2] | k(Cdk2)/k(Cdk2_mut) rate enhancement [2] | Rate constant with glutathione (k(GSH)) [1] | Rate constant with Glutathione [1] | also measured
C=CC(=O)N1CCc2cc(-c3cccc(F)c3)ccc21 [CA-042] | 0.4287 | 0.006272 | 0.3187 | 0.004663 | 0.1215 | 0.001778 | 5.547 | 0.08115 | 0.5636 | 0.008245 | 0.1351 | 0.5064 | 0.09535 | 0.001395 | 0.04257 | 2.91 | 0.04257 | 0.3151 | 0.00825 | 0.01463 | Rate constant with Cdk2 H71C (Cdk2(H71C) (C177A)): 0.007409; k(Cdk2)/k(GSH) rate enhancement [2]: 5.157
C=CC(=O)N1CCC2CCC(C1)N2C (centres unmarked) [CA-143] | 0.1014 | 0.002972 | 0.9178 | 0.02691 | 0.2049 | 0.006009 | 2.359 | 0.06917 | 0.6344 | 0.0186 | 0.00505 | 0.08025 | 0.4942 | 0.01449 | 0.01115 | 0.3803 | 0.01115 | 2.207 | 0.0293 | 0.02932 | Rate constant with Cdk2 H71C (Cdk2(H71C) (C177A)): 0.002353; k(Cdk2)/k(GSH) rate enhancement [2]: 0.3805
C=CC(=O)Nc1nc2ccccc2n1CCc1ccccn1 [CA-144] | 0.4956 | 0.02063 | 0.4516 | 0.0188 | 0.9491 | 0.03951 | 2.327 | 0.09687 | 1.262 | 0.05252 | 0.01242 | 8.256 | 2.14 | 0.08909 | 0.04682 | 1.125 | 0.04682 | 3.77 | 0.0414 | 0.04163 | Rate constant with Cdk2 H71C (Cdk2(H71C) (C177A)): 0.3437; k(Cdk2)/k(GSH) rate enhancement [2]: 1.131
C=CC(=O)Nc1ccccc1N1CCOCC1 [CA-030] | 1.494 | 0.025 | 0.7478 | 0.01251 | 0.2896 | 0.004845 | 0.5957 | 0.009966 | 0.2657 | 0.004445 | 0.03859 | 0.1317 | 0.2409 | 0.00403 | 0.01069 | 0.639 | 0.01069 | 0.277 | 0.0159 | 0.01673 | Rate constant with Cdk2 H71C (Cdk2(H71C) (C177A)): 0.002204; k(Cdk2)/k(GSH) rate enhancement [2]: 0.6723

Now from value to molecule, other results behind:

Rate enhancement, Cdk2 F80C (Cdk2(C177A, F80C)) | Rate constant with Cdk2 F80C (Cdk2(C177A, F80C)) | Rate enhancement, Cdk2 S181C (Cdk2(S181C) (C177A)) | Rate constant with Cdk2 S181C (Cdk2(S181C) (C177A)) | Rate enhancement, Cdk2 R122C (Cdk2(R122C) (C177A)) | Rate constant with Cdk2 R122C (Cdk2(R122C) (C177A)) | Rate enhancement, Cdk2 T182C (Cdk2(T182C) (C177A)) | Rate constant with Cdk2 T182C (Cdk2(T182C) (C177A)) | Rate enhancement, Cdk2 S276C (Cdk2(S276C) (C177A)) | Rate constant with Cdk2 S276C (Cdk2(S276C) (C177A)) | Rate constant with Cdk2[C177A, F80C, K278C] (k(Cdk2_mut)) (Cdk2[C177A, F80C, K278C]) | Rate enhancement, Cdk2 H71C (Cdk2(H71C) (C177A)) | Rate enhancement, Cdk2 N272 (Cdk2(N272C) (C177A)) | Rate constant with Cdk2 N272C (Cdk2(N272C) (C177A)) | Rate constant with Cdk2 (k(Cdk2)) [2] | Rate enhancement, Cdk2 WT [2] | Rate constant with Cdk2 WT [2] | k(Cdk2)/k(Cdk2_mut) rate enhancement [2] | SMILES | Rate constant with glutathione (k(GSH)) [1] | Rate constant with Glutathione [1] | also measured
1.94 | 0.01663 | 1.588 | 0.01361 | 0.7255 | 0.006219 | 5.286 | 0.04531 | 0.9188 | 0.007876 | 0.00922 | 0.5644 | 0.3872 | 0.003319 | 0.00827 | 0.9701 | 0.008316 | 0.8966 | C=CC(=O)Nc1ccc2nc(C)[nH]c2c1 [EL-1109] | 0.00862 | 0.008572 | Rate constant with Cdk2 H71C (Cdk2(H71C) (C177A)): 0.004838; k(Cdk2)/k(GSH) rate enhancement [2]: 0.9595
1.223 | 0.006191 | 1.564 | 0.007918 | 0.606 | 0.003068 | 5.254 | 0.0266 | 0.2765 | 0.0014 | 0.00663 | 0 | 0.3073 | 0.001556 | 0.00448 | 1.245 | 0.006301 | 0.6762 | C=CC(=O)N1CCCC1c1ccc(OC)cc1 (centres unmarked) [EL-1062] | 0.00509 | 0.005063 | k(Cdk2)/k(GSH) rate enhancement [2]: 0.8802
